Measured values: US9605013B2, “Derivatives of hemin with antibacterial and antiviral activity” (OBSCHESTVO S OGRANICHENNOI OTVETSTVENNOSTIYU …, priority 2011, dated 2017)

Key:
[1] = tested on: Herpes Simplex Virus type 2 strain G (No. VR-734 ATCC); assay: Antiviral activity, virus cytopathogenic action in Vero cells; assay type: cell-based; design: key: 0: CPA (cytopathogenic action) is not detected; 1: up to 25% virus-infected monolayer; from 25% to 50%; 3: from 50% to 75%; 4: from 75% to 100%; conditions: 48 hours
[2] = HSV-2, virus dose 1, concentration 0.1 μM
[3] = HSV-2, virus dose 1, concentration 1 μM
[4] = HSV-2, virus dose 1, concentration 10 μM
[5] = HSV-2, virus dose 10, concentration 0.1 μM
[6] = HSV-2, virus dose 10, concentration 1 μM
[7] = HSV-2, virus dose 10, concentration 10 μM
[8] = HSV-2, virus dose 100, concentration 0.1 μM
[9] = HSV-2, virus dose 100, concentration 1 μM
[10] = HSV-2, virus dose 100, concentration 10 μM

C=CC1=C(C)c2cc3[n-]c(cc4[n-]c(cc5nc(cc1n2)C(C)=C5C=C)c(C)c4CCC(=O)N[C@@H](CO)C(=O)O)c(CCC(=O)N[C@@H](CO)C(=O)O)c3C.[Cl-].[Fe+3] [VI, 6,7-bis-(N^α-Seryl]-Protohemin (IX)]
manifestation of the virus CPA [1, 2]: 1 (up to 25% virus-infected monolayer)
manifestation of the virus CPA [1, 3]: 1 (up to 25% virus-infected monolayer)
manifestation of the virus CPA [1, 4]: 0^1
manifestation of the virus CPA [1, 5]: 2 (from 25% to 50%)
manifestation of the virus CPA [1, 6]: 2 (from 25% to 50%)
manifestation of the virus CPA [1, 7]: 0^1
manifestation of the virus CPA [1, 8]: 3 (from 50% to 75%)
manifestation of the virus CPA [1, 9]: 3 (from 50% to 75%)
manifestation of the virus CPA [1, 10]: 2^1 (from 25% to 50%)

C=CC1=C(C)c2cc3[n-]c(cc4[n-]c(cc5nc(cc1n2)C(C)=C5C=C)c(C)c4CCC(=O)N[C@@H](CCCNC(=N)N)C(N)=O)c(CCC(=O)N[C@@H](CCCNC(=N)N)C(N)=O)c3C.[Cl-].[Fe+3] [II, 6,7-bis-(Amide N^α-Arginyl)-Protohemin (IX)]
water solubility (Water solubility): water-soluble
manifestation of the virus CPA [1, 2]: 1 (up to 25% virus-infected monolayer)
manifestation of the virus CPA [1, 3]: 0.5 scores
manifestation of the virus CPA [1, 4]: 0^1
manifestation of the virus CPA [1, 5]: 1.5 scores
manifestation of the virus CPA [1, 6]: 2 (from 25% to 50%)
manifestation of the virus CPA [1, 7]: 1^1 (up to 25% virus-infected monolayer)
manifestation of the virus CPA [1, 8]: 3 (from 50% to 75%)
manifestation of the virus CPA [1, 9]: 3 (from 50% to 75%)
manifestation of the virus CPA [1, 10]: 3 (from 50% to 75%)

6,7-bis-[(Diamide N^α-L-Arginyl)-L-glutamyl]-Protohemin (IX)
water solubility (Water solubility): water-soluble
manifestation of the virus CPA [1, 2]: 1 (up to 25% virus-infected monolayer)
manifestation of the virus CPA [1, 3]: 0.5 scores
manifestation of the virus CPA [1, 4]: 0^1
manifestation of the virus CPA [1, 5]: 2 (from 25% to 50%)
manifestation of the virus CPA [1, 6]: 2 (from 25% to 50%)
manifestation of the virus CPA [1, 7]: 1^1 (up to 25% virus-infected monolayer)
manifestation of the virus CPA [1, 8]: 3 (from 50% to 75%)
manifestation of the virus CPA [1, 9]: 3 (from 50% to 75%)
manifestation of the virus CPA [1, 10]: 3 (from 50% to 75%)

6,7-bis-(Amide N^α-Glycyl)-Protohemin (IX) [IV]
water solubility (Water solubility): water-insoluble
manifestation of the virus CPA [1, 2]: 1 (up to 25% virus-infected monolayer)
manifestation of the virus CPA [1, 3]: 0.5 scores
manifestation of the virus CPA [1, 4]: 0^1
manifestation of the virus CPA [1, 5]: 2 (from 25% to 50%)
manifestation of the virus CPA [1, 6]: 2 (from 25% to 50%)
manifestation of the virus CPA [1, 7]: 0^1
manifestation of the virus CPA [1, 8]: 3 (from 50% to 75%)
manifestation of the virus CPA [1, 9]: 3 (from 50% to 75%)
manifestation of the virus CPA [1, 10]: 0^1

C=CC1=C(C)c2cc3[n-]c(cc4[n-]c(cc5nc(cc1n2)C(C)=C5C=C)c(C)c4CCC(=O)N[C@@H](CO)C(N)=O)c(CCC(=O)N[C@@H](CO)C(N)=O)c3C.[Cl-].[Fe+3] [V, 6,7-bis-(Amide N^α-Seryl)-Protohemin (IX)]
water solubility (Water solubility): water-insoluble
manifestation of the virus CPA [1, 2]: 1 (up to 25% virus-infected monolayer)
manifestation of the virus CPA [1, 3]: 0.5 scores
manifestation of the virus CPA [1, 4]: 0^1
manifestation of the virus CPA [1, 5]: 2 (from 25% to 50%)
manifestation of the virus CPA [1, 6]: 2 (from 25% to 50%)
manifestation of the virus CPA [1, 7]: 0^1
manifestation of the virus CPA [1, 8]: 3 (from 50% to 75%)
manifestation of the virus CPA [1, 9]: 3 (from 50% to 75%)
manifestation of the virus CPA [1, 10]: 2^1 (from 25% to 50%)
